Laboratory results from publication PMC3467217, “A Potent Class of GPR40 Full Agonists Engages the EnteroInsular Axis to Promote Glucose Control in Rodents” (PLoS ONE, 2012).

Columns and labels:
[1] = tested on: NONcNZO10/LtJ mice; assay: OGTT in NONcNZO10/LtJ type 2 diabetic mice; format: in vivo, mouse
Protocol: NONcNZO10/LtJ mice retain an intact leptin pathway but contain polygenic defects contributing to moderate and mature onset obesity and diabetes, [31].
(§1) All procedures on animals were approved by the Amgen San Francisco Institutional Animal Care and Use Committee (approved protocols #11–04 and #2007–00106). The Amgen San Francisco vivarium is an AAALAC accredited facility. Animals were housed under a 12-h light, 12-h dark cycle (lights-on 0600 h and lights-off 1800 h) and were allowed ad libidum access to chow and water. The HF/STZ mice were established as previously described. Briefly, C57BL/6j mice (Jackson labs) at 4 weeks of age were fed a high-fat diet (BioServ S1850, 35% fat) for 3-weeks and then injected with 95 mg/kg streptozotocin (Sigma) ip to induce beta cell dysfunction. The animals continued on the same high fat diet for 3–6 additional weeks. Animals were then randomized into treatment groups based on fasting blood glucose and insulin measures. NONcNZO10/LtJ (RCS10) male mice (Jackson labs) were used at 12-weeks of age and randomized for treatment based on fasting glucose levels. For OGTT experiments, drugs were formulated in 1% HPMC, 10% HPbCD, 1% Tween-80 and dosed via oral gavage. Glucose was administered at 2 g/kg 1-hour post drug dose by oral gavage.
(§2) For all glucose tolerance tests, glucose and insulin measurements were taken from tail vein samples at various time-points. Blood glucose values were measured on an Accu-Chek glucometer (Roche Diagnostics), while insulin levels were determined using an ELISA (Alpco).

[2] = tested on: islets isolated from GPR40 knockout mice; assay: GSIS assay with islets from GPR40 knock-out mice; format: cell-based, mouse
Protocol: Mouse islets were isolated and tested for stimulation of GSIS as described. Human islets were purchased from Prodo labs or were obtained from the National Institutes of Health and Juvenile Diabetes Research Foundation supported Islet Cell Resource Consortium (http://icr.coh.org). Islet inositol phosphate assays were performed on islets cells that had been dispersed with trypsin. 10,000 islet cells were plated/well of a 96-well plate and were loaded with ^3H-myo-inositol (0.5 µCi/well) in RPMI overnight prior to treatment. The next day, response to different stimuli was tested in HBSS containing 10 mM LiCl and 0.1% HSA (w/v) for 1 hour at 37°C. Accumulated ^3H-inositol phosphate was measured after capture to SPA beads. Islet perifusion experiments were performed on mouse islets loaded into a Brandel Suprafusion system. Twenty islets were size-matched and loaded per perifusion chamber. Islets were perifused in KRBH containing, sequentially, 3 mM glucose, then 3 mM glucose containing 10 µM drug, 16.7 mM glucose containing 10 µM drug and finally returned to 3 mM glucose containing 10 µM drug. Insulin was measured using an insulin ELISA kit (Alpco). Fetal rat intestinal cells were isolated from e19-day old fetuses of pregnant Sprague-Dawley rats. Briefly, fetal intestines were isolated and digested in HBSS buffer containing 0.5 mg/ml collagenase (Sigma), 0.5 mg/ml of hyaluronidase (Sigma) and 0.05 mg/ml of deoxyribonuclease I (Roche) for 30 minutes at 37°C. The digestion was quenched using HBSS containing 15% FBS. Fetal rat intestinal cells were washed and cultured overnight in DMEM containing 5% FBS in 96-well plates. To test for secretion of GLP-1 and GIP in response to treatments, we incubated cells for 1 hour with treatments in KRBH buffer containing 0.05% BSA (w/v). GLP-1 and GIP1 secreted into the media was measured using ELISA kits specific for GLP-1 (Linco) or GIP (Millipore).

[3] = Unbound plasma drug concentration in HF/STZ mice; format: in vivo; details: C57BL/6j, mouse, 100 mg/kg oral, 1-hour post drug administration, by MS, read-out: free drug level in plasma
[4] = target: T1, GPR120 (Homo sapiens, UniProt Q5NUL3); assay: GPR120 aequorin assay; format: cell-based; details: weak activity
T1 construct: expressed in transfected cells
T1 sequence (Q5NUL3 whole entry, species assumed): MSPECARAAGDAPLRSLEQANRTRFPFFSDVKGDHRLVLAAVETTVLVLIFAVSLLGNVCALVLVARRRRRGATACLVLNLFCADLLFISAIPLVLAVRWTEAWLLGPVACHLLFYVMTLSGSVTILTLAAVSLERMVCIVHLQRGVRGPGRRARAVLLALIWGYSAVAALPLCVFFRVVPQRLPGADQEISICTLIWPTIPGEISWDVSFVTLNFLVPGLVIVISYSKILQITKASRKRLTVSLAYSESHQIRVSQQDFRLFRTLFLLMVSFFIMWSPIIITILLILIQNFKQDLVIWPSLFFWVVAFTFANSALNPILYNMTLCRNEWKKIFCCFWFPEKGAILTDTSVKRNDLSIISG
From the text: (§3) (A) GPR41 (FFAR3) aequorin assay. GPR41 was force coupled to the calcium signaling pathway by co-transfecting the cells with Gqmyri5. (B) GPR43 (FFAR2) aequorin assay. The short chain fatty acid propionate acts as a natural agonist ligand for GPR41 and GPR43. (C) GPR120 aequorin assay. The unsaturated fatty acids α-LNN and DHA act as natural agonist ligands for GPR120. (D) PPAR-gamma luciferase assay using the thiazolidinedione rosiglitazone as a positive control. […] (TIF) Click here for additional data file.

[5] = tested on: HF/STZ mice; assay: OGTT in high-fat fed, streptozotocin-treated (HF/STZ) type 2 diabetic mice; format: in vivo, mouse; details: OGTT; for Glucose AUC improvement: 1 hour before glucose
Protocol: as §1, §2

[6] = target: T2, GPR41 (FFAR3) (Homo sapiens, UniProt O14843); assay: GPR41 aequorin assay; format: cell-based; details: up to 10 µM
T2 construct: expressed in transfected cells
T2 sequence (O14843 whole entry, species assumed): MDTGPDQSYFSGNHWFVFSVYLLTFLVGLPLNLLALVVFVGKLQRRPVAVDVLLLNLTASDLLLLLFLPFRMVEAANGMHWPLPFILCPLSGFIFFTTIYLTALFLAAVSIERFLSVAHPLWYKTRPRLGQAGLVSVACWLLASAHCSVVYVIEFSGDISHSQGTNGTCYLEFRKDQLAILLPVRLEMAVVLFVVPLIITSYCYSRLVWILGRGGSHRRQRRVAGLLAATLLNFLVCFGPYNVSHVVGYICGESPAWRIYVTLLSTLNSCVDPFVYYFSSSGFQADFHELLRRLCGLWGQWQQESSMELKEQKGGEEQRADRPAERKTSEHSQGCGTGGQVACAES
From the text: as §3

[7] = target: mouse GPR40 (Mus musculus, UniProt Q76JU9); assay: Mouse GPR40 inositol phosphate accumulation assay; format: cell-based
Sequence of mouse GPR40 (Q76JU9 whole entry): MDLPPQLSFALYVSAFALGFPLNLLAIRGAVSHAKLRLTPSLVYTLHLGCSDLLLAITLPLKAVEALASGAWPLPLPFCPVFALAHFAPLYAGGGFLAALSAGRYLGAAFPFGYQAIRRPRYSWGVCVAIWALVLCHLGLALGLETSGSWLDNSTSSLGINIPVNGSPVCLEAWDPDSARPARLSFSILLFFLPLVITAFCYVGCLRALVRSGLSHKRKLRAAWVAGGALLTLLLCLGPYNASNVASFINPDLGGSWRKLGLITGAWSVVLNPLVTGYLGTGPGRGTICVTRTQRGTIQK
Protocol: GPR40 aequorin, plasmid titration, and inositol phosphate assays were performed as described. For aequorin assays, in addition to transient transfection of GPR40 into CHO cells, a CHO cell line stably expressing both GPR40 and aequorin was generated. GLUTag cells were obtained under a license from Dr. Daniel Drucker, University of Toronto. Competition binding experiments were performed using membranes prepared from A9_GPR40 cells. […] Competition binding assays were carried out in 20 mM Hepes pH 7.5, 5 mM MgCl2, 100 mM NaCl and 0.1% (w/v) free fatty acid BSA and bound radioligand was collected on 96-well GF/C filter plates.

[8] = target: PPAR gamma (Homo sapiens, UniProt P37231); assay: PPAR-gamma luciferase assay; format: cell-based; details: concentrations up to 10 µM
Sequence of PPAR gamma (P37231 whole entry): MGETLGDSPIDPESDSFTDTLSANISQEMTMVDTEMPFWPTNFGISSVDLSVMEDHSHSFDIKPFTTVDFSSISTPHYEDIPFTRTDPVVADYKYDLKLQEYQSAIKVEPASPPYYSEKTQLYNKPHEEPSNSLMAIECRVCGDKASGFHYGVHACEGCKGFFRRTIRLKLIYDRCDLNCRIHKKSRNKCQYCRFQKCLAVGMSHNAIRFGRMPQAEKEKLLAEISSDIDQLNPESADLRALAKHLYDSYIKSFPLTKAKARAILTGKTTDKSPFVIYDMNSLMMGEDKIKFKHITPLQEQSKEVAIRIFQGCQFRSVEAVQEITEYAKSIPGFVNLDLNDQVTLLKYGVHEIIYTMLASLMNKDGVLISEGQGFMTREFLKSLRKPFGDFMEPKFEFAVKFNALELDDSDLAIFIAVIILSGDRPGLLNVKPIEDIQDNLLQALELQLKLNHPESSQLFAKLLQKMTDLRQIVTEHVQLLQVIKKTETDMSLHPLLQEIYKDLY
From the text: as §3

[9] = tested on: fetal rat intestinal cells; assay: GLP-1 secretion assay with fetal rat intestinal cells; format: cell-based; details: 1 hour
From the text: Increased GLP-1 and GIP would be expected to have additional benefits in type 2 diabetics. […] We tested for potential effects on incretin secretion in vitro by using cells isolated from fetal rat intestines.
Mouse islets were isolated and tested for stimulation of GSIS as described. Human islets were purchased from Prodo labs or were obtained from the National Institutes of Health and Juvenile Diabetes Research Foundation supported Islet Cell Resource Consortium (http://icr.coh.org). Islet inositol phosphate assays were performed on islets cells that had been dispersed with trypsin. 10,000 islet cells were plated/well of a 96-well plate and were loaded with ^3H-myo-inositol (0.5 µCi/well) in RPMI overnight prior to treatment. The next day, response to different stimuli was tested in HBSS containing 10 mM LiCl and 0.1% HSA (w/v) for 1 hour at 37°C. Accumulated ^3H-inositol phosphate was measured after capture to SPA beads. Islet perifusion experiments were performed on mouse islets loaded into a Brandel Suprafusion system. Twenty islets were size-matched and loaded per perifusion chamber. […] Insulin was measured using an insulin ELISA kit (Alpco). […] GLP-1 and GIP1 secreted into the media was measured using ELISA kits specific for GLP-1 (Linco) or GIP (Millipore).

[10] = tested on: C57/Bl6 mice; assay: IPGTT in C57BL/6j mice with or without GLP-1R antagonist Ex(9-39)NH2; format: in vivo, mouse
Protocol: An intraperitoneal rather than oral glucose challenge was performed in order to bypass the incretin effect of an oral glucose administration.
IPGTT experiments with Ex(9–39)NH2 (Bachem) were performed with male C57BL/6j (n = 6–7/group) at 26-weeks of age. Ex(9–39)NH2 was formulated in PBS containing 0.1%BSA and dosed ip at 300 µg/kg.
as §2

[11] = target: T3, GPR43 (FFAR2) (Homo sapiens, UniProt O15552); assay: GPR43 aequorin assay; format: cell-based; details: up to 10 µM
T3 construct: expressed in transfected cells
T3 sequence (O15552 whole entry, species assumed): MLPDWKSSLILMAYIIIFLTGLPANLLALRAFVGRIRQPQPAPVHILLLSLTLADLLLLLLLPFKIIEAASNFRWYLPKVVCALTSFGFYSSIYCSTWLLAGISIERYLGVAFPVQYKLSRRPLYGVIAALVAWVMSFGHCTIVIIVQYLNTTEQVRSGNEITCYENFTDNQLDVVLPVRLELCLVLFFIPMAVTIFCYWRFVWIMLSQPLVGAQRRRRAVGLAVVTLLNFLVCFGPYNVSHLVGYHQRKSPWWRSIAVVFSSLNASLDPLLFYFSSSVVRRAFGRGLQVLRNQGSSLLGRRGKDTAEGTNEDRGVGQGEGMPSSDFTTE
From the text: as §3

concentration at 1 h [3]: 363 ± 48 nM
EC50 [4]: ~5000 nM
activation of GPR41 (FFAR3) [6]: did not activate
EC50 [7]: 12.9 ± 1.4 nM
activation of PPAR gamma [8]: did not activate
activation of GPR43 (FFAR2) [11]: did not activate
SMILES: COc1ccc(F)c(-c2ccc(COc3cccc([C@@H](CC(=O)O)C4CC4)c3)cc2C2=CCCC2(C)C)c1 [AM-1638]
GIP levels vs vehicle ([1]; 60 mg/kg, 15 minutes after glucose challenge): did not reach statistical significance
insulin and GLP-1 levels 15 minutes after glucose challenge ([1]; 60 mg/kg, vs vehicle and baseline): significantly increased
Glucose AUC change as printed in figure 5B ([1]; OGTT, 60mg/kg): -26%
Glucose AUC reduction compared to vehicle ([1]; OGTT, single 60 mg/kg oral dose): 26%
glucose excursions during OGTT ([1]; single 60 mg/kg oral dose): almost complete suppression
GSIS response of GPR40 knockout islets [2]: did not respond
Glucose AUC improvement ([5]; 10 mg/kg oral): 15%
Glucose AUC improvement ([5]; 30 mg/kg oral): 23%
Glucose AUC improvement ([5]; 60 mg/kg oral): 35%
Glucose AUC improvement ([5]; 100 mg/kg oral): 48%
insulin secretion, fold greater than AMG 837 ([5]; higher doses): 1.5–2.2 fold
GLP-1 release in vitro [9]: could stimulate GLP-1 release
Glucose AUC reduction ([10]; AM-1638 60 mg/kg alone): ~53%
Glucose AUC reduction ([10]; AM-1638 60 mg/kg in the presence of exendin(9-39)NH2 300 µg/kg ip): ~25%
